Tested on: MV-4-11 cells
Test: Gene expression microarray analysis (Affymetrix PrimeView) and GSEA
Format: cell-based, human
Set-up: RFU PODN (11730768_x_at) / Fold change /veh PODN (11730768_x_at) / RFU LINC00158 (11744669_a_at) / Fold change /veh LINC00158 (11744669_a_at) / RFU DUSP10 (11751237_a_at) / Fold change /veh DUSP10 (11751237_a_at) / RFU ID3 (11757404_x_at) / Fold change /veh ID3 (11757404_x_at) / RFU PLEKHG5 (11737974_s_at) / Fold change /veh PLEKHG5 (11737974_s_at) / RFU LRRC4B (11730491_at) / Fold change /veh LRRC4B (11730491_at) / RFU GIMAP4 (11747438_a_at) / Fold change /veh GIMAP4 (11747438_a_at) / RFU KRT8 (11758183_x_at) / Fold change /veh KRT8 (11758183_x_at) / RFU CNN1 (11734310_a_at) / Fold change /veh CNN1 (11734310_a_at) / RFU VPS37D (11726825_at) / Fold change /veh VPS37D (11726825_at) / RFU C10orf10 (11716522_x_at) / Fold change /veh C10orf10 (11716522_x_at) / RFU KIR2DL2 /// KIR2DL4 /// KIR2DL5A /// KIR2DL5B /// KIR2DS1 /// KIR2DS2 /// KIR2DS3 /// KIR2DS4 /// KIR3DL3 /// KIR3DL3 /// KIR3DS1 (11738374_at) / Fold change /veh KIR2DL2 /// KIR2DL4 /// KIR2DL5A /// KIR2DL5B /// KIR2DS1 /// KIR2DS2 /// KIR2DS3 /// KIR2DS4 /// KIR3DL3 /// KIR3DL3 /// KIR3DS1 (11738374_at) / RFU C1QL1 (11718748_at) / Fold change /veh C1QL1 (11718748_at) / RFU TMPRSS4 (11747572_a_at) / Fold change /veh TMPRSS4 (11747572_a_at) / RFU HAMP (11756126_x_at) / Fold change /veh HAMP (11756126_x_at) / RFU RNFT2 (11725882_a_at) / Fold change /veh RNFT2 (11725882_a_at) / RFU NR4A2 (11747474_a_at) / Fold change /veh NR4A2 (11747474_a_at) / RFU ABCC12 (11746883_a_at) / Fold change /veh ABCC12 (11746883_a_at) / RFU TMEM136 (11760407_x_at) / Fold change /veh TMEM136 (11760407_x_at) / RFU CLDN22 /// WWC2 (11732394_at) / Fold change /veh CLDN22 /// WWC2 (11732394_at) / RFU HLA-DPB1 (11760878_x_at) / Fold change /veh HLA-DPB1 (11760878_x_at) / RFU SPINT1 (11716480_a_at) / Fold change /veh SPINT1 (11716480_a_at) / RFU GAP43 (11754022_s_at) / Fold change /veh GAP43 (11754022_s_at) / RFU A4GNT (11735810_at) / Fold change /veh A4GNT (11735810_at) / RFU PRB3 (11715151_x_at) / Fold change /veh PRB3 (11715151_x_at) / RFU TUBB4B (11761932_at) / Fold change /veh TUBB4B (11761932_at) / RFU CAPN14 (11732068_a_at) / Fold change /veh CAPN14 (11732068_a_at) / RFU TMCC2 (11721928_a_at) / Fold change /veh TMCC2 (11721928_a_at) / RFU IRGQ (11745062_a_at) / Fold change /veh IRGQ (11745062_a_at) / RFU FAM174B (11720279_a_at) / Fold change /veh FAM174B (11720279_a_at) / RFU TMPRSS4 (11748680_a_at) / Fold change /veh TMPRSS4 (11748680_a_at) / RFU FAM212B (11763350_a_at) / Fold change /veh FAM212B (11763350_a_at) / RFU PLEKHG5 (11743358_a_at) / Fold change /veh PLEKHG5 (11743358_a_at) / RFU ZSCAN30 (11745921_a_at) / Fold change /veh ZSCAN30 (11745921_a_at) / RFU CMKLR1 (11741424_a_at) / Fold change /veh CMKLR1 (11741424_a_at) / RFU LOC101060620 /// MAPK8IP1 (11723275_at) / Fold change /veh LOC101060620 /// MAPK8IP1 (11723275_at) / RFU SPTSSB (11747773_x_at) / Fold change /veh SPTSSB (11747773_x_at) / RFU PRSS12 (11739890_at) / Fold change /veh PRSS12 (11739890_at) / RFU BIN1 (11741810_x_at) / Fold change /veh BIN1 (11741810_x_at) / RFU WNT11 (11732464_a_at) / Fold change /veh WNT11 (11732464_a_at) / RFU C10orf10 (11716521_a_at) / Fold change /veh C10orf10 (11716521_a_at) / RFU C5orf56 (11738089_at) / Fold change /veh C5orf56 (11738089_at) / RFU CYB561 (11721691_x_at) / Fold change /veh CYB561 (11721691_x_at) / RFU ANKRD19P (11752326_a_at) / Fold change /veh ANKRD19P (11752326_a_at) / RFU OR2T12 /// OR2T33 /// OR2T8 (11738714_s_at) / Fold change /veh OR2T12 /// OR2T33 /// OR2T8 (11738714_s_at) / RFU VCAN (11748164_a_at) / Fold change /veh VCAN (11748164_a_at) / RFU JSRP1 (11732532_at) / Fold change /veh JSRP1 (11732532_at) / RFU KRTAP10-11 (11738290_x_at) / Fold change /veh KRTAP10-11 (11738290_x_at) / RFU MYO3A (11730013_a_at) / Fold change /veh MYO3A (11730013_a_at) / RFU EBF3 (11725865_a_at) / Fold change /veh EBF3 (11725865_a_at) / RFU CAMK2N1 (11719241_x_at) / Fold change /veh CAMK2N1 (11719241_x_at) / RFU C5orf56 (11738088_a_at) / Fold change /veh C5orf56 (11738088_a_at) / RFU OLFML3 (11715873_a_at) / Fold change /veh OLFML3 (11715873_a_at) / RFU LOC100653217 /// NTM (11731650_a_at) / Fold change /veh LOC100653217 /// NTM (11731650_a_at) / RFU MAPK11 (11762145_a_at) / Fold change /veh MAPK11 (11762145_a_at) / RFU FIZ1 (11724087_x_at) / Fold change /veh FIZ1 (11724087_x_at) / RFU OASL (11726364_x_at) / Fold change /veh OASL (11726364_x_at) / RFU SOX15 (11748057_x_at) / Fold change /veh SOX15 (11748057_x_at) / RFU CD79A (11719716_a_at) / Fold change /veh CD79A (11719716_a_at) / RFU HIST1H1D (11736915_at) / Fold change /veh HIST1H1D (11736915_at) / RFU CASKIN2 (11723855_a_at) / Fold change /veh CASKIN2 (11723855_a_at) / RFU LOC730098 (11760151_x_at) / Fold change /veh LOC730098 (11760151_x_at) / RFU OR4N2 (11742367_at) / Fold change /veh OR4N2 (11742367_at) / RFU PRRT2 (11749266_a_at) / Fold change /veh PRRT2 (11749266_a_at) / RFU SNX32 (11753110_a_at) / Fold change /veh SNX32 (11753110_a_at) / RFU CDHR5 (11726645_a_at) / Fold change /veh CDHR5 (11726645_a_at) / RFU RCAN1 (11760418_a_at) / Fold change /veh RCAN1 (11760418_a_at) / RFU FAM167A (11723789_a_at) / Fold change /veh FAM167A (11723789_a_at) / RFU FAM26E (11764081_at) / Fold change /veh FAM26E (11764081_at) / RFU ISYNA1 (11749810_s_at) / Fold change /veh ISYNA1 (11749810_s_at) / RFU ACY1 (11761880_at) / Fold change /veh ACY1 (11761880_at) / RFU 11764098_at / Fold change /veh 11764098_at / RFU SAMD14 (11745864_x_at) / Fold change /veh SAMD14 (11745864_x_at) / RFU NPB (11741838_a_at) / Fold change /veh NPB (11741838_a_at) / RFU TMPRSS6 (11731388_a_at) / Fold change /veh TMPRSS6 (11731388_a_at) / RFU KRTAP10-2 (11738614_at) / Fold change /veh KRTAP10-2 (11738614_at) / RFU ARHGAP8 /// PRR5-ARHGAP8 (11727945_x_at) / Fold change /veh ARHGAP8 /// PRR5-ARHGAP8 (11727945_x_at) / RFU KRTAP5-7 /// NADSYN1 (11734609_at) / Fold change /veh KRTAP5-7 /// NADSYN1 (11734609_at) / RFU RASL12 (11751679_a_at) / Fold change /veh RASL12 (11751679_a_at) / RFU CDKN2B (11736163_a_at) / Fold change /veh CDKN2B (11736163_a_at) / RFU PRF1 (11729649_at) / Fold change /veh PRF1 (11729649_at) / RFU, ZNF638 /// ZNF638-IT1 / Fold change vs veh, ZNF638 /// ZNF638-IT1 / RFU, PANK3 / Fold change vs veh, PANK3 / RFU, SH3YL1 / Fold change vs veh, SH3YL1 / RFU, ZEB2 / Fold change vs veh, ZEB2 / RFU, NRIP1 / Fold change vs veh, NRIP1 / RFU, PTTG1IP / Fold change vs veh, PTTG1IP / RFU, CAPN2 / Fold change vs veh, CAPN2 / RFU, MED14 / Fold change vs veh, MED14 / RFU, SNORA58 / Fold change vs veh, SNORA58 / RFU, C1orf63 / Fold change vs veh, C1orf63 / RFU, LRRFIP1 / Fold change vs veh, LRRFIP1 / RFU, NDUFAF7 / Fold change vs veh, NDUFAF7 / RFU, SLC12A2 / Fold change vs veh, SLC12A2 / RFU, IBTK / Fold change vs veh, IBTK / RFU, ESF1 / Fold change vs veh, ESF1 / Fold change vs veh, TMEM50B / RFU, TAOK1 / Fold change vs veh, TAOK1 / RFU, ACBD3 / Fold change vs veh, ACBD3 / RFU, TMA16 / Fold change vs veh, TMA16 / RFU, RWDD3 / Fold change vs veh, RWDD3 / RFU, BCAT1 / Fold change vs veh, BCAT1 / RFU, EDEM3 / Fold change vs veh, EDEM3 / RFU, TMEM33 / Fold change vs veh, TMEM33 / RFU, WDR75 / Fold change vs veh, WDR75 / RFU, AHCTF1 / Fold change vs veh, AHCTF1 / RFU, TFRC / Fold change vs veh, TFRC / RFU, ZDHHC17 / Fold change vs veh, ZDHHC17 / RFU, NOM1 / Fold change vs veh, NOM1 / RFU, ARL8B / Fold change vs veh, ARL8B / RFU, ZBTB11 / Fold change vs veh, ZBTB11 / RFU, TAMM41 / Fold change vs veh, TAMM41 / RFU, KIAA1704 /// LOC100996395 / Fold change vs veh, KIAA1704 /// LOC100996395 / RFU, ING1 / Fold change vs veh, ING1 / RFU, TRMT61B / Fold change vs veh, TRMT61B / RFU, FUBP3 / Fold change vs veh, FUBP3 / RFU, TP53 / Fold change vs veh, TP53 / RFU, TNKS2 / Fold change vs veh, TNKS2 / RFU, ZFP14 / Fold change vs veh, ZFP14 / RFU, ACTR2 / Fold change vs veh, ACTR2 / RFU, PPP3R1 / Fold change vs veh, PPP3R1 / RFU, PIK3R1 / Fold change vs veh, PIK3R1 / RFU, HNRNPA1 / Fold change vs veh, HNRNPA1 / RFU, RNF170 / Fold change vs veh, RNF170 / RFU, ZNF28 / Fold change vs veh, ZNF28 / RFU, RNGTT / Fold change vs veh, RNGTT / RFU, OGT / Fold change vs veh, OGT / RFU, BRD1 / Fold change vs veh, BRD1 / RFU, MARS / Fold change vs veh, MARS / RFU, ZNF655 / Fold change vs veh, ZNF655 / RFU, FAHD1 / Fold change vs veh, FAHD1 / RFU, BDP1 / Fold change vs veh, BDP1 / RFU, LRRCC1 / Fold change vs veh, LRRCC1 / RFU, ARID1A / Fold change vs veh, ARID1A / RFU, ZNF146 / Fold change vs veh, ZNF146 / RFU, ZNF330 / Fold change vs veh, ZNF330 / RFU, GPN3 / Fold change vs veh, GPN3 / RFU, C9orf123 / Fold change vs veh, C9orf123 / RFU, N4BP2L2 / Fold change vs veh, N4BP2L2 / RFU, ARFIP1 / Fold change vs veh, ARFIP1 / RFU, FAM179B / Fold change vs veh, FAM179B / RFU, BCL10 / Fold change vs veh, BCL10 / RFU, UHRF1BP1L / Fold change vs veh, UHRF1BP1L / RFU, BET1 / Fold change vs veh, BET1 / RFU, CNOT2 / Fold change vs veh, CNOT2 / RFU, ZNF268 / Fold change vs veh, ZNF268 / Fold change vs veh, ZNF507 / RFU, DGCR2 / Fold change vs veh, DGCR2 / RFU, WDSUB1 / Fold change vs veh, WDSUB1 / Fold change vs veh, HSP90B1 /// MIR3652 / RFU, ADSS / Fold change vs veh, ADSS / RFU, GK / Fold change vs veh, GK / RFU, ZNF148 / Fold change vs veh, ZNF148 / RFU, TAF9 / Fold change vs veh, TAF9 / RFU, SLC1A5 / Fold change vs veh, SLC1A5 / RFU, SLMO2 / Fold change vs veh, SLMO2 / RFU, ABCC4 / Fold change vs veh, ABCC4 / RFU, LOC101060439 /// RAP1B / Fold change vs veh, LOC101060439 /// RAP1B / RFU, RFX7 / Fold change vs veh, RFX7 / RFU, GTPBP10 / Fold change vs veh, GTPBP10 / RFU, CNEP1R1 / Fold change vs veh, CNEP1R1 / RFU, BIVM-ERCC5 /// ERCC5 / Fold change vs veh, BIVM-ERCC5 /// ERCC5 / RFU, ILF3 / Fold change vs veh, ILF3 / RFU 11762660_at / Fold change /veh 11762660_at / RFU VCAN (11757783_s_at) / Fold change /veh VCAN (11757783_s_at) / RFU DDX43 (11728927_at) / Fold change /veh DDX43 (11728927_at) / RFU KRT8 (11758188_x_at) / Fold change /veh KRT8 (11758188_x_at) / RFU NKD1 (11759106_at) / Fold change /veh NKD1 (11759106_at) / RFU SRD5A1 (11742802_a_at) / Fold change /veh SRD5A1 (11742802_a_at) / RFU TPSAB1 /// TPSB2 (11721975_s_at) / Fold change /veh TPSAB1 /// TPSB2 (11721975_s_at) / RFU GSTM3 (11746129_a_at) / Fold change /veh GSTM3 (11746129_a_at) / RFU IL23R (11737362_x_at) / Fold change /veh IL23R (11737362_x_at) / RFU TMEM51 (11727254_a_at) / Fold change /veh TMEM51 (11727254_a_at) / RFU PIWIL2 (11732686_x_at) / Fold change /veh PIWIL2 (11732686_x_at) / RFU ORM1 (11744905_x_at) / Fold change /veh ORM1 (11744905_x_at) / RFU CCDC152 (11743942_at) / Fold change /veh CCDC152 (11743942_at) / RFU ECM1 (11717891_a_at) / Fold change /veh ECM1 (11717891_a_at) / RFU IL23R (11748794_a_at) / Fold change /veh IL23R (11748794_a_at) / RFU TNFAIP8L3 (11732012_x_at) / Fold change /veh TNFAIP8L3 (11732012_x_at) / RFU MBOAT4 (11741988_at) / Fold change /veh MBOAT4 (11741988_at) / RFU 11764193_at / Fold change /veh 11764193_at / RFU TMEM53 (11763286_at) / Fold change /veh TMEM53 (11763286_at) / RFU MAGEB2 (11727129_at) / Fold change /veh MAGEB2 (11727129_at) / RFU TMEM200A (11744735_a_at) / Fold change /veh TMEM200A (11744735_a_at) / RFU CCDC152 (11751479_a_at) / Fold change /veh CCDC152 (11751479_a_at) / RFU FAM211A (11726209_a_at) / Fold change /veh FAM211A (11726209_a_at) / RFU RGS16 (11746705_a_at) / Fold change /veh RGS16 (11746705_a_at) / RFU VCAN (11755009_s_at) / Fold change /veh VCAN (11755009_s_at) / RFU RHOB (11743442_s_at) / Fold change /veh RHOB (11743442_s_at) / RFU RGS16 (11720943_a_at) / Fold change /veh RGS16 (11720943_a_at) / RFU RGS16 (11720944_at) / Fold change /veh RGS16 (11720944_at) / RFU, VPS4B / Fold change vs veh, VPS4B / RFU, CREB1 / Fold change vs veh, CREB1 / RFU, DNAJC13 / Fold change vs veh, DNAJC13 / RFU, GNAQ / Fold change vs veh, GNAQ / RFU, CDK5R1 / Fold change vs veh, CDK5R1 / RFU, ZRANB3 / Fold change vs veh, ZRANB3 / RFU, CUL4A / Fold change vs veh, CUL4A / RFU, CCNY / Fold change vs veh, CCNY / RFU, UFL1 / Fold change vs veh, UFL1 / RFU, COG3 / Fold change vs veh, COG3 / RFU, DIAPH2 / Fold change vs veh, DIAPH2 / RFU, SKA2 / Fold change vs veh, SKA2 / RFU, AFF3 / Fold change vs veh, AFF3 / RFU, LMF1 / Fold change vs veh, LMF1 / RFU, IPO11 / Fold change vs veh, IPO11 / RFU, DFFB / Fold change vs veh, DFFB / RFU, FOXP1 / Fold change vs veh, FOXP1 / RFU, CARD8 / Fold change vs veh, CARD8 / RFU, STRN3 / Fold change vs veh, STRN3 / RFU, ADK / Fold change vs veh, ADK / RFU, RASSF2 / Fold change vs veh, RASSF2 / RFU, WIPF1 / Fold change vs veh, WIPF1 / RFU, LARP1B / Fold change vs veh, LARP1B / RFU, RASA1 / Fold change vs veh, RASA1 / RFU, RB1 / Fold change vs veh, RB1 / RFU, PPFIA1 / Fold change vs veh, PPFIA1 / RFU, MAT2A / Fold change vs veh, MAT2A / RFU, CCT5 / Fold change vs veh, CCT5 / RFU, WDR92 / Fold change vs veh, WDR92 / RFU, CUX1 / Fold change vs veh, CUX1 / RFU, TTC7A / Fold change vs veh, TTC7A / RFU, TMEM135 / Fold change vs veh, TMEM135 / RFU, DEPTOR / Fold change vs veh, DEPTOR / RFU, CPM / Fold change vs veh, CPM / RFU, DNAJB6 / Fold change vs veh, DNAJB6 / RFU, CACNA2D3 / Fold change vs veh, CACNA2D3 / RFU, DTX4 / Fold change vs veh, DTX4 / RFU, TFCP2 / Fold change vs veh, TFCP2 / RFU, GMCL1 /// GMCL1P1 / Fold change vs veh, GMCL1 /// GMCL1P1 / RFU, AEBP2 / Fold change vs veh, AEBP2 / RFU, SNHG1 /// SNORD22 /// SNORD25 /// SNORD26 /// SNORD27 /// SNORD28 /// SNORD29 /// SNORD31 / Fold change vs veh, SNHG1 /// SNORD22 /// SNORD25 /// SNORD26 /// SNORD27 /// SNORD28 /// SNORD29 /// SNORD31 / Fold change (Aza/veh), C12orf56 (ProbeSet 11735607_a_at) / Fold change (ACY-1035/veh), C12orf56 (ProbeSet 11735607_a_at) / Fold change (Aza/veh), FGFR1OP (ProbeSet 11751329_s_at) / Fold change (ACY-1035/veh), FGFR1OP (ProbeSet 11751329_s_at) / Fold change (Aza/veh), VPS36 (ProbeSet 11739960_a_at) / Fold change (ACY-1035/veh), VPS36 (ProbeSet 11739960_a_at) / RFU SYPL1 (11715823_x_at) / Fold change /veh SYPL1 (11715823_x_at) / RFU IGFBP7 (11715501_s_at) / Fold change /veh IGFBP7 (11715501_s_at) / RFU REEP3 (11722064_at) / Fold change /veh REEP3 (11722064_at) / RFU IGLL1 (11728026_x_at) / Fold change /veh IGLL1 (11728026_x_at): dose or concentration left out as unconfirmed
Settings: ProbeSet 11730501_a_at; LIST D

Question: `Nc1ccc(-c2cccs2)cc1NC(=O)c1ccc2c(c1)cc(C1CC1)n2CCN1CCOCC1` [ACY-1035] was tested. Which “RFU, CACNA2D3” value did it give?
Answer: Its value is 202.11 RFU.

Source: article PMC5218480 (PLoS ONE, 2017)
